The target of the assay is mGluR5 receptor (Sus scrofa, UniProt I3LUI7). Briefly: Affinity for the mGluR5 receptor: inhibition of 3[H]-MPEP binding in pig brain homogenate. The conditions noted are these: 10 μM compound, 5 nM 3[H]-MPEP, read-out: mGluR5 receptor inhibition of ^3[H]-MPEP binding [10 μM] in % at a concentration of the example compounds of 10 μM. On the procedure:
1. Method for Determining Affinity for the mGluR5 Receptor
Pig brain homogenate is produced by homogenisation (Polytron Pt 3000, Kinematica AG, 10,000 revolutions per minute for 90 seconds) of pig brain hemispheres without medulla, cerebellum and pons in a buffer of pH 8.0 (30 mM Hepes, Sigma, order number H3375+1 tablet Complete Roche Diagnostics, order number 1836145 made up to 100 ml) in a ratio of 1:20 (brain weight/volume) and differential centrifugation at 900×g and 40,000×g. 450 μg of protein from brain homogenate is incubated in each case in 250 μl incubation batches in 96-well microtitre plates with 5 nM 3[H]-MPEP (Tocris, order number R1212) (MPEP=2-methyl-6-[…]) and the compounds to be investigated (10 μM in the test) in the buffer (as above) at room temperature for 60 minutes.
The batches are then filtered with the assistance of a Brandel Cell Harvester (Brandel, Grade Robotic 9600) on Unifilter plates with glass filter mats (Perkin Elmer, order number 6005177) and then washed 3 times with buffer (as above) using 250 μl per sample. The filter plates are then dried for 60 minutes at 55° C. Then 30 μl of Ultima Gold™ scintillating material (Packard BioScience, order number 6013159) is added per well and after 3 hours the samples are measured using the β counter (Microbeta, Perkin Elmer). Nonspecific binding is determined by the addition of 10 μM MPEP (Tocris, order number 1212).

Chain of mGluR5 receptor (I3LUI7 19-1212): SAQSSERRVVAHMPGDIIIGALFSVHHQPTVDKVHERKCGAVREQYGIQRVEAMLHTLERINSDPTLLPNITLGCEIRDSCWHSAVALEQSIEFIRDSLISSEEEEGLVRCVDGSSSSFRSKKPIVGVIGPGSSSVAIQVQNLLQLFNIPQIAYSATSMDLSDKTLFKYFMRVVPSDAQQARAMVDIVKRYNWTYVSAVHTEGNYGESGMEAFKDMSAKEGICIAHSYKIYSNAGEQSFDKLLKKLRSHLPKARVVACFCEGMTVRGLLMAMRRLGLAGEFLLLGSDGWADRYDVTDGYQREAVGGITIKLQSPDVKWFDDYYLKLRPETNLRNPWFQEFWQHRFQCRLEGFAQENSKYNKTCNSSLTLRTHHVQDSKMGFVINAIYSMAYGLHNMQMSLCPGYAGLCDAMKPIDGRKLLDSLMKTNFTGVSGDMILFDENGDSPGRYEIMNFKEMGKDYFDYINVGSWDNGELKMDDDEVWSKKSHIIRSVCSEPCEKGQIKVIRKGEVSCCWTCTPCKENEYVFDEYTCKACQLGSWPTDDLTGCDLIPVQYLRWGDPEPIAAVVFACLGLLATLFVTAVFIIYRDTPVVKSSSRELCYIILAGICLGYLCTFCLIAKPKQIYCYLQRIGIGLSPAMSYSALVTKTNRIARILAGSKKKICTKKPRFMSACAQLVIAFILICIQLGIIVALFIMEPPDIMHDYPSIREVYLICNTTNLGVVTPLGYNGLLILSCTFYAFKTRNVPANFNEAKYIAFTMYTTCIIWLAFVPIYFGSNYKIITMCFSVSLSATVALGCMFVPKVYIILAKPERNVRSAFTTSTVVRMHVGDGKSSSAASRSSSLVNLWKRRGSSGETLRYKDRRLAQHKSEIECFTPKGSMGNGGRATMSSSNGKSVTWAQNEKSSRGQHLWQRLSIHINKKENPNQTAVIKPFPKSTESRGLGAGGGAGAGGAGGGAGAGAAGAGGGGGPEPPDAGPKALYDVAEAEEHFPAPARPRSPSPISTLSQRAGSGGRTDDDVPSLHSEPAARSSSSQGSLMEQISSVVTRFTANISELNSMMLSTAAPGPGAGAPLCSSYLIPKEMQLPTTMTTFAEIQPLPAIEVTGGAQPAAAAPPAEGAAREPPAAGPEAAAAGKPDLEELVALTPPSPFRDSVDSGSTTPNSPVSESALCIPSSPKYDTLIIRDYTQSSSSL

Consider `Fc1ccc(Nc2c(-c3ccc(C#Cc4ccccc4)s3)nc3cc(-c4ccccc4)ccn23)cc1Cl` [Example 33, (3-chloro-4-fluoro-phenyl)-[7-phenyl-2-(5-phenylethynyl-thiophen-2-yl)-imidazo[1,2-a]pyridin-3-yl]-amine], for which the inhibition at 10 µM was 98%.

As to `COc1ccc(CNc2c(-c3ccc(C#Cc4ccccc4)s3)nc3nc(C)ccn23)cc1` [Example 34, (4-methoxy-benzyl)-[7-methyl-2-(5-phenylethynyl-thiophen-2-yl)-imidazo[1,2-a]pyrimidin-3-yl]-amine], the inhibition at 10 µM turned out to be 98%. In the case of `Cc1cccn2c(NC(C)c3ccccc3)c(-c3ccc(C#Cc4ccccc4)s3)nc12` (stereo not shown) [Example 35, [8-methyl-2-(5-phenylethynyl-thiophen-2-yl)-imidazo[1,2-a]pyridin-3-yl]-(1-phenyl-ethyl)-amine] it was 95%; in that of `Cc1ccn2c(NC(C)c3ccccc3)c(-c3ccc(C#Cc4ccccc4)s3)nc2n1` (stereo not shown) [Example 36, [7-methyl-2-(5-phenylethynyl-thiophen-2-yl)-imidazo[1,2-a]pyrimidin-3-yl]-(1-phenyl-ethyl)-amine], 100%. The value for `COc1ccccc1CNc1c(-c2ccc(C#Cc3ccccc3)s2)nc2cc(C)ccn12` [Example 37, (2-methoxy-benzyl)-[7-methyl-2-(5-phenylethynyl-thiophen-2-yl)-imidazo[1,2-a]pyridin-3-yl]-amine] was 85%.

Consider `COc1ccccc1CNc1c(-c2ccc(C#Cc3ccccc3)s2)nc2ccccn12` [Example 38, (2-methoxy-benzyl)-[2-(5-phenylethynyl-thiophen-2-yl)-imidazo[1,2-a]pyridin-3-yl]-amine], for which the inhibition at 10 µM was found to be 87%. In the case of `Clc1ccccc1CNc1c(-c2ccc(C#Cc3ccccc3)s2)nc2ccccn12` [Example 39, (2-chloro-benzyl)-[2-(5-phenylethynyl-thiophen-2-yl)-imidazo[1,2-a]pyridin-3-yl]-amine] it was 72%.

`COc1ccccc1CNc1c(-c2ccc(C#Cc3ccccc3)s2)nc2nc(C)ccn12` [Example 40, (2-methoxy-benzyl)-[7-methyl-2-(5-phenylethynyl-thiophen-2-yl)-imidazo[1,2-a]pyrimidin-3-yl]-amine]: the inhibition at 10 µM was 87%. The value for `COc1cccc(Nc2c(-c3ccc(C#Cc4ccccc4)s3)nc3ccc(C)cn23)c1` [Example 41, (3-methoxy-phenyl)-[6-methyl-2-(5-phenylethynyl-thiophen-2-yl)-imidazo[1,2-a]pyridin-3-yl]-amine] was 73%; that for `COc1cccc(Nc2c(-c3ccc(C#Cc4ccccc4)s3)nc3cc(C)cc(C)n23)c1` [Example 42, [5,7-dimethyl-2-(5-phenylethynyl-thiophen-2-yl)-imidazo[1,2-a]pyridin-3-yl]-(3-methoxy-phenyl)-amine] was 93%; that for `COc1cccc(Nc2c(-c3ccc(C#Cc4ccccc4)s3)nc3cnccn23)c1` [Example 43, (3-methoxy-phenyl)-[2-(5-phenylethynyl-thiophen-2-yl)-imidazo[1,2-a]pyrazin-3-yl]-amine] was 83%.

Take `CCc1ccn2c(NCc3ccccc3OC)c(-c3ccc(C#Cc4ccccc4)s3)nc2c1` [Example 44, [7-ethyl-2-(5-phenylethynyl-thiophen-2-yl)-imidazo[1,2-a]pyridin-3-yl]-(2-methoxy-benzyl)-amine]: the inhibition at 10 µM was determined as 75%.

Take `CCc1ccn2c(NCc3ccccc3Cl)c(-c3ccc(C#Cc4ccccc4)s3)nc2c1` [Example 45, (2-chloro-benzyl)-[7-ethyl-2-(5-phenylethynyl-thiophen-2-yl)-imidazo[1,2-a]pyridin-3-yl]-amine]: the inhibition at 10 µM was 93%. In the case of `CC(C)(C)c1ccn2c(Nc3ccc(F)c(Cl)c3)c(-c3ccc(C#Cc4ccccc4)s3)nc2c1` [Example 46, [7-tert-butyl-2-(5-phenylethynyl-thiophen-2-yl)-imidazo[1,2-a]pyridin-3-yl]-(3-chloro-4-fluoro-phenyl)-amine] it was 76%; in that of `COc1cccc(CNc2c(-c3ccc(C#Cc4ccccc4)s3)nc3nc(C)ccn23)c1` [Example 47, (3-methoxy-benzyl)-[7-methyl-2-(5-phenylethynyl-thiophen-2-yl)-imidazo[1,2-a]pyrimidin-3-yl]-amine], 79%. The value for `CCc1ccn2c(Nc3ccccc3F)c(-c3ccc(C#Cc4ccccc4)s3)nc2c1` [Example 48, [7-ethyl-2-(5-phenylethynyl-thiophen-2-yl)-imidazo[1,2-a]pyridin-3-yl]-(2-fluoro-phenyl)-amine] was 82%; that for `CC(C)(C)c1ccn2c(Nc3ccccc3F)c(-c3ccc(C#Cc4ccccc4)s3)nc2c1` [Example 49, [7-tert-butyl-2-(5-phenylethynyl-thiophen-2-yl)-imidazo[1,2-a]pyridin-3-yl]-(2-fluoro-phenyl)-amine] was 85%; that for `Fc1ccc(Nc2c(-c3ccc(C#Cc4ccccc4)s3)nc3cc(CCCc4ccccc4)ccn23)c(F)c1` [Example 50, (2,4-difluoro-phenyl)-[2-(5-phenylethynyl-thiophen-2-yl)-7-(3-phenyl-propyl)-imidazo[1,2-a]pyridin-3-yl]-amine] was 90%.

Regarding `Cc1ccn2c(NCc3ccc(F)cc3)c(-c3ccc(C#Cc4ccccc4)s3)nc2c1` [Example 51, (4-fluoro-benzyl)-[7-methyl-2-(5-phenylethynyl-thiophen-2-yl)-imidazo[1,2-a]pyridin-3-yl]-amine], the inhibition at 10 µM is 89%. The value for `Cc1cc(C)n2c(NCc3ccc(F)cc3)c(-c3ccc(C#Cc4ccccc4)s3)nc2c1` [Example 52, [5,7-dimethyl-2-(5-phenylethynyl-thiophen-2-yl)-imidazo[1,2-a]pyridin-3-yl]-(4-fluoro-benzyl)-amine] was 75%; that for `CCc1ccn2c(NCc3cccc(C(F)(F)F)c3)c(-c3ccc(C#Cc4ccccc4)s3)nc2c1` [Example 53, [7-ethyl-2-(5-phenylethynyl-thiophen-2-yl)-imidazo[1,2-a]pyridin-3-yl]-(3-trifluoromethyl-benzyl)-amine] was 80%. In the case of `CC(C)c1ccn2c(NCc3cccc(C(F)(F)F)c3)c(-c3ccc(C#Cc4ccccc4)s3)nc2c1` [Example 54, [7-isopropyl-2-(5-phenylethynyl-thiophen-2-yl)-imidazo[1,2-a]pyridin-3-yl]-(3-trifluoromethyl-benzyl)-amine] it was 69%; in that of `CC(C)(C)Nc1c(-c2cc(C#Cc3ccccc3)cs2)nc2cnccn12` [Example 55, tert-butyl-[2-(4-phenylethynyl-thiophen-2-yl)-imidazo[1,2-a]pyrazin-3-yl]-amine], 77%; in that of `CC(C)(C)CC(C)(C)Nc1c(-c2ccc(C#Cc3ccccc3)s2)nc2cnccn12` [Example 56, [2-(5-phenylethynyl-thiophen-2-yl)-imidazo[1,2-a]pyrazin-3-yl]-(1,1,3,3-tetramethyl-butyl)-amine], 100%.

As to `CCCCNc1c(-c2cc(C#Cc3ccccc3)cs2)nc2cnccn12` [Example 57, butyl-[2-(4-phenylethynyl-thiophen-2-yl)-imidazo[1,2-a]pyrazin-3-yl]-amine], the inhibition at 10 µM came out at 94%.
